# Columns and labels:
# [1] = system: INS-1 832/3 cells; assay: TAQMAN real-time quantitative RT-PCR of miRNA expression in INS-1 832/3 cells; assay type: cell-based, rat
# Protocol: INS-1 832/3 and 832/13 cells were maintained in RPMI 1640 with 10% FBS and 11 mM glucose. For GLP-1 treatment, GLP-1 (7-37) amide (ABCHEM) was added in the media in the presence of 16 mM glucose for 24 hours. Total RNA was extracted with TRIZOL as in Example 1. Rat islet isolation and treatment was as follows. Pancreatic islets of Langerhans were isolated from the pancreas of normal Sprague-Dawley rats (Charles River, Ind.) by collagenase digestion and discontinuous Ficoll gradient separation (15). Islets were cultured for 2 hours in RPMI 1640 medium with 11 mM glucose for recovery from the isolation process. Then 100-200 islets were treated with 50 nM GLP-1 in the media with 11 mM glucose for 24 hours. RNA was extracted with TRIZOL as in Example 1 for quantification of microRNA species.
# Fluorogenic TAQMAN detector probes specific for miR-132 (Cat# TM457), miR-212 (Cat# TM515), miR-375 (Cat#TM564), and miR-217 (Cat#1133) were purchased from Applied Biosystems (Foster City, Calif.). The TAQMAN RT-PCR reactions were performed according to the manufacturer's instructions.
# Relative miRNA levels for the miRNAs of interest were determined by real-time reverse transcription reaction using the ABI PRISM 7900 Sequence Detection System from Applied Biosystems (Foster City, Calif.) according to the manufacturer's protocol. Briefly, 10 ng of total RNA was mixed with 1 U MultiScribe Reverse Transcriptase, 0.25 U RNase Inhibitor, 3 μL hairpin-looped miRNA-specific RT primer, 1 mM dNTPs and 1× Reverse Transcription Buffer in a total volume of 15 μL. The mixture was incubated at 16° C. for 30 minutes, 42° C. for another 30 minutes, and the reaction was stopped by heating to 85° C. for 5 minutes. Real time PCR reaction was set up in 20 μL volume with 1.33 μL first strand cDNA, 1× TAQMAN MicroRNA Assay Mix and 1× TAQMAN Universal PCR Master Mix. After activation of the AMPLITAQ Gold DNA polymerase at 95° C. for 10 minutes, 40 cycles of two-step PCR were run (95° C. for 15 seconds and 60° C. for 60 seconds). Data were collected and analyzed with SDS v.2.2.2 software (Applied Biosystems). 4.5S RNA or U6 probe (Applied Biosystems) was used as a reference to determine the relative abundance of each miRNA in different samples. TAQMAN RT-PCR was performed according the manufacturer's instructions.
# The absolute miRNA levels were determined by reverse transcription reactions in GeneAmp PCR system 9700 followed by amplification using the ABI PRISM 7900HT Sequence Detection System from Applied Biosystems (Foster City, Calif.) through 40 cycles. 4.5S RNA (H) probe (Cat#TM1716) or U6 (Cat#TM1973) was used as reference to determine the relative abundance of each miRNA in different samples. The induction of miR-132 and miR-212 expression by GLP-1 started around 4 hour post-GLP-1 treatment, peaked at 24 hours and was sustained up to 48 hours (FIG. 2).
# [2] = system: INS-1 832/13 cells; assay: glucose dependent insulin secretion (GDIS) assay in INS-1 832/13 cells; assay type: cell-based, rat; details: 16 mM glucose, two-hour incubation in KRB
# Source text: We overexpressed the precursors of miR-132 and miR-212 to evaluate their possible contribution to β-cell function. MicroRNA miR-375 was included as a control as it been reported to have an inhibitory effect on GDIS (Poy et al., Nature 432: 226-230 (2004)). Chemically modified Pre-miR™ miRNA precursor molecules and Anti-miR™ miRNA inhibitors were purchased from Ambion (Foster City, Calif.). miRCURY LNA™ microRNA knockdown oligonucleotides were purchased from Exiqon (Woburn, Mass.). The oligonucleotide molecules were delivered to the cells by the Nucleofector Device (Amaxa, Gaithersburg, Md.). In brief, INS-1 cells were trypsinized, centrifuged, and resuspended in 100 μl Nucleofector solution V. Then 100-500 pmole RNA oligonucleotides were transfected to 3-million cells at the concentration of 1-5 μM with the Amaxa Nucleofector Device. Scramble controls from the vendors were used with the same transfection method. After electroporation, the cells were transferred to regular culture medium and then split into replicates in 96-well plates. Insulin secretion assay or LANCE cAMP assay were performed 48 hours post electroporation.
# INS-1 cell glucose dependent insulin secretion (GDIS) assay was performed as follows. The GDIS assay was performed with cells grown to near confluency in 96-well plates. Prior to the assay, cells were washed once with PBS and pre-incubated for two hours in freshly prepared Krebs-Ringer Bicarbonate (KRB) medium without glucose. The medium were then replaced with KRB with 2, 8 or 16 mM glucose or along with 10 nM GLP-1. The cells were incubated for another two hours in a CO2 incubator. The media was then removed at the end of incubation, and assayed for insulin levels by Ultra-sensitive Rat Insulin ELISA kit (ALPCO, Salem, N.H.) or insulin immunoassay by Gyrolab workstation (GYROS AB, Uppsala, Sweden). Intracellular insulin was extracted by acid ethanol method for measuring intracellular insulin content. Total protein was measured by Pierce 660 nm Protein Assay from Pierce Biotechnology, Inc. (Rockford, Ill.).
# [3] = 50 nM GLP-1, 50 nM Exendin-4, 5 μM IBMX, 1 μM Foskolin (FIG. 6A)
substance,measurement,setting,value
GLP-1 (7-37) amide,miR-132 expression,[1]; [3],significantly increased
same,miR-212 expression,[1]; [3],significantly increased
same,miR-375 expression,[1]; [3],remained unchanged
same,induction of miR-132 and miR-212 expression sustained up to,[1]; 50 nM GLP-1 time course,up to 48 hours
same,peak of induction of miR-132 and miR-212 expression,[1]; 50 nM GLP-1 time course,24 h
same,"start of induction of miR-132 and miR-212 expression, time post-GLP-1 treatment",[1]; 50 nM GLP-1 time course,around 4 hour
same,induction of miR-132 and miR-212 (subsequent TAQMAN analyses),[1]; GLP-1 treatment,confirmed the induction
same,induction of miR-217 (subsequent TAQMAN analyses),[1]; GLP-1 treatment,not miR-217
same,increase of insulin secretion upon treatment with GLP-1,[2],less than 50%

# From patent US20120034608A1, “MICRORNA AS A BIOMARKER OF PANCREATIC ISLET BETA-CELL ENGAGEMENT” (Merck Sharp & Dohme Corp., priority 2009, published 2012)
